Reference: patent US20190077774A1, “PEROXISOME PROLIFERATOR-ACTIVATED RECEPTOR AGONISTS” (City of Hope, priority 2017, published 2019)
“Also recorded” adds a separate entry of the source.

Assays:
mouse PPARα = biological target: T1, mouse PPARα (Mus musculus, UniProt P23204); test: PPAR-GAL4 transactivation assay in transiently transfected CV-1 cells; type: cell-based; details: PPAR-GAL4 chimeric receptor, read-out: EC50(nM) mPPARα
T1 construct: expressed in transfected cells; host or cells: CV-1 (monkey kidney) cells, transient transfection
T1 sequence (P23204 159-468): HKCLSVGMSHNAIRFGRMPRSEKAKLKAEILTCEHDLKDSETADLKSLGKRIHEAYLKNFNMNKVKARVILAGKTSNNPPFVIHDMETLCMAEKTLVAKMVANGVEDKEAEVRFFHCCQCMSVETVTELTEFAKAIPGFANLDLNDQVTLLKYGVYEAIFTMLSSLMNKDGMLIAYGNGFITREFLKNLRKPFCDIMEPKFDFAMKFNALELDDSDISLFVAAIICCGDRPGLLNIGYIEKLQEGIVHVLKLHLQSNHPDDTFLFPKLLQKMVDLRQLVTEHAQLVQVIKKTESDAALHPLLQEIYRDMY
Protocol: To assess the functional transcriptional activity of these compounds, cell-based assays using chimeric receptor Gal4 DNA-binding domain (DBD)-NR ligand binding domain cotransfection assay (LBDs of PPARα, PPARγ, and PPARδ) were performed. As an initial screen to determine the PPARα activity and selectivity, all compounds were evaluated for in vitro potency and selectivity by transfection testing, using CV-1 cells transfected with human and mouse PPARs. MH100×4 is a luciferase reporter with four copies of a GAL4 UASG response element, where GAL-I refers to the ligand-binding domain of the indicated receptor fused to the C-terminus of the GAL4 DNA-binding domain. Assays were performed using a Biomek automated workstation in which the genes for the nuclear receptor, as well as a plasmid containing a response element upstream of a luciferase cDNA, are transfected into CV-1 cells. Compounds were evaluated for their ability to activate human and mouse PPARs at […] test concentrations. […] The transactivation activity of the series of compounds (DY121-132, 10a-g) toward PPARα was expressed as EC50, which is the concentration of the test compound that affords half-maximum activity, as summarized in Table 1.
In vitro binding and transfection studies. As an initial screen to determine the PPARα, PPARγ, and PPARδ activity, all compounds were evaluated for in vitro potency and selectivity by transfection testing, using CV-1 cells transfected with human and mouse PPARs. MH100×4 is a luciferase reporter with four copies of a GAL4 USAG response element, where GAL-I refers to the ligand-binding domain of the indicated receptor fused to the C-terminus of the GAL4 DNA-binding domain. Assays were performed using a Biomek automated workstation in which the gene for the nuclear receptor, as well as a plasmid containing a response element upstream of a luciferase cDNA, are transfected into CV-1 cells. Compounds were evaluated for their ability to activate human PPARs at 1, 2.5, 3, and 5 uM test concentrations.
Compounds were screened for agonist activity towards PPAR-GAL4 chimeric receptors in transiently transfected CV-1 cells as described. EC50 is the concentration of test compound that gave 50% maximum efficacy.

[1] = system: PPARα target genes in the liver; test: Liver gene expression of PPARα targets in treated mice (RT-qPCR); type: in vivo
Source text: FIG. 6. […] Data in same order as triglyceride suppression (FIG. 5). apo CIII and LPL expression inversely correlate with triglyceride suppression for many, but not all, compounds. ACOX1 and Cyp4A3 expression correlate with triglyceride suppression for many, but not all, compounds.
The following oligonucleotide primers were used to amplify insertion sequences: for PPARα, FW-5′-[…]-3′ (SEQ ID NO:1) and Rev-5′-[…]-3′ (SEQ ID NO:2); for RXRα, FW-5′ […]-3′ (SEQ ID NO:3) and Rev-5′-[…]-3′ (SEQ ID NO:4). It has been well established that PPARα agonists fibrates reduce plasma triglycerides largely by inducing hepatic PPARα-mediated transcription of key proteins in hepatic long-chain fatty acid […], such as CPT1 (carnitine palmitoyltransferase-1). DY121 promoted the expression of PPARα, CPT1, and LPL involved in free fatty acid β-oxidation. The mRNA expressions of the PPARα-regulated genes CPT-Ia and ACADM were measured by real-time quantitative-PCR (RT-qPCR). […] A structural specificity of DY121 may be responsible for this regulation. PPARα is predominantly expressed in liver. PPARα modulates fatty acid catabolism in the liver. We next measured the mRNA expression of PPARα target genes in the liver. PPARα agonists exert their actions and attributed to the activation of PPARα which in turn effects an increase in LPL (lipoprotein lipase) gene expression and transrepression of apoC-III (apolipoprotein C-III). Activation of PPARα by its modulators can increase PPARα levels and activate PPARα pathways, leading to increased fatty-acid oxidation and reduction of oxidative stress. DY121 and its analogs induced the expression of PPARα-regulated genes involved in lipid, glucose, and cholesterol metabolism, such as ACOX1 (acyl-CoA oxidase) and Cyp4A3 (cytochrome P450 gene subfamily). Members of the CYP4A gene subfamily catalyze the oxygenation of biologically important fatty acids.
Next, we would like to investigate the therapeutic potential of DY121 to see if it could be candidate for treating NAFLD/NASH. Note that the pathogenesis of NASH has not yet been fully elucidated so far; however, the ‘two-hit’ theory is widely accepted. The first hit is the accumulation of fatty acids in the liver to cause steatosis. […] The newly produced PPARα agonist DY121 and its analogs, as well as WY100=WY14643 and GW3 (GW7647), were evaluated in C57Bl/6J female mice for their ability to alter serum triglyceride, liver gene expression, and glucose. Fibric acid derivatives (100 mg/kg/day) was used as a control, WY100 (WY14, 643, 100 mg/kg/day), GW3 (GW7647-positive control, 3 mg/kg/day), DY121 (˜3 mg/kg/day), respectively. […]

C57Bl/6J female mice = test: Serum triglyceride and lipid effects in C57Bl/6J female mice; type: in vivo

Q: With COc1ccc(Cn2c(CCCc3ccc(OC(C)(C)C(=O)O)cc3)nn(Cc3ccc(C)cc3)c2=O)cc1 [10a, 2-(4-{3-[4-(4-Methoxy-benzyl)-1-(4-methyl-benzyl)-5-oxo-4,5-dihydro-1H[1,2,4]triazol-3-yl]-propyl}-phenoxy)-2-methyl-propionic acid] as the compound, how does the EC50 (mouse PPARα) read?
A: 3 nM

Q: What about the “expression of PPARα, CPT1, and LPL” value ([1]; RT-qPCR) of the same compound?
A: promoted

Q: What about the “expression of PPARα-regulated genes such as ACOX1 and Cyp4A3” value ([1]; RT-qPCR) of the same compound?
A: induced

Q: What about the “liver CPT-Ia expression” value ([1]; chronic (>3 d) treatment (FIG. 17)) of the same compound?
A: upregulated

Q: What about the LPL expression ([1]; liver, chronic treatment (FIG. 11)) of the same compound?
A: enhanced expression of LPL

Q: What about the ACOX1 expression ([1]; liver, chronic treatment (FIG. 12)) of the same compound?
A: enhanced by PPARα activation, most consistently

Q: And the Cyp4A3 expression ([1]; liver, chronic treatment (FIG. 13))?
A: consistently

Q: What about the apoCIII expression ([1]; liver, chronic treatment up to 7 days (FIG. 11)) of the same compound?
A: significantly suppressed expression of apoCIII at each time point

Q: What about the ACADM expression ([1]; time course (FIG. 18)) of the same compound?
A: upregulates

Q: And the “CYP4A3 mRNA in the liver” value ([1]; wild-type and PPARα knockout mice)?
A: enhanced levels of CYP4A3 mRNA in the liver of wild-type but not PPARα knockout mice

Q: What about the “triglycerides, time course” value (C57Bl/6J female mice; 24 h vs 72 h, wild type and PPARα-knockout mice (FIG. 8)) of the same compound?
A: maintained over 72 h in wild type but not PPARα-knockout mice

Q: And the “triglycerides, chronic treatment” value (C57Bl/6J female mice; 7 day period (FIG. 10))?
A: suppressed triglycerides over the entire 7 day period

Q: And the “dose-response of triglyceride suppression” value (C57Bl/6J female mice; FIG. 7, listed as DY121)?
A: Dose-response suppression; also recorded: dose-dependent anti-dyslipidemic effects

Q: What about the “FFA and glycerol time course” value (C57Bl/6J female mice; FIG. 14 and 15) of the same compound?
A: early increase (lipolytic burst) followed by decline
